How the values were obtained:
Experiment in all cases: relative viability (nuclei count vs DMSO), 5 days (fraction); higher = more cells survive
[1] = compound: CCn1c(-c2nonc2N)nc2cnc(Oc3cccc(NC(=O)c4ccc(OCCN5CCOCC5)cc4)c3)cc21 + C[C@@H](Oc1cc(-c2cnn(C3CCNCC3)c2)cnc1N)c1c(Cl)ccc(F)c1Cl [Crizotinib] (partner 1 µM)
Outline: (§1)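 After 5 days of treatment, lung cancer cells in 1536-well plates were fixed and stained in a single step (final 0.05% Triton X-100, 1% formaldehyde, 1 ug/ml Hoechst) and their nuclei counted on 4× images. Treatment had been applied by pin tool the day after seeding as one drug alone or as a fixed anchor-drug dose with five library-drug doses (not always all listed) in √10 steps. Relative viability is the nuclei count of treated wells divided by that of vehicle wells, and values are medians of duplicate plates.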

[2] = compound: CCC1=CN=CN=C1N2CCN(CC2)CC3=NC4=C(N3)C=C(C=C4)C(F)(F)F + Cc1nc(NC(=O)N2CCC[C@H]2C(N)=O)sc1-c1ccnc(C(C)(C)C(F)(F)F)c1 [Alpelisib] (partner 2 µM)
Outline: as §1

[3] = compound: CCn1c(-c2nonc2N)nc2cnc(Oc3cccc(NC(=O)c4ccc(OCCN5CCOCC5)cc4)c3)cc21 + Cc1nc(NC(=O)N2CCC[C@H]2C(N)=O)sc1-c1ccnc(C(C)(C)C(F)(F)F)c1 [Alpelisib] (partner 2 µM)
Outline: as §1

Mirin + Alpelisib = compound: N=C1NC(=O)/C(=C/c2ccc(O)cc2)S1 [Mirin] + Cc1nc(NC(=O)N2CCC[C@H]2C(N)=O)sc1-c1ccnc(C(C)(C)C(F)(F)F)c1 [Alpelisib] (partner 2 µM)
Outline: as §1

| Cell Line | relative viability ([1]; first compound 0.04 µM) | relative viability ([1]; first compound 0.1265 µM) | relative viability ([1]; first compound 0.4 µM) | relative viability ([1]; first compound 1.265 µM) | relative viability ([1]; first compound 4 µM) | relative viability ([2]; first compound 0.04 µM) | relative viability ([2]; first compound 0.1265 µM) | relative viability ([2]; first compound 0.4 µM) | relative viability ([2]; first compound 1.265 µM) | relative viability ([2]; first compound 4 µM) | relative viability ([3]; first compound 0.04 µM) | relative viability ([3]; first compound 0.1265 µM) | relative viability ([3]; first compound 0.4 µM) | relative viability ([3]; first compound 1.265 µM) | relative viability ([3]; first compound 4 µM) | relative viability (Mirin + Alpelisib; first compound 0.25 µM) | relative viability (Mirin + Alpelisib; first compound 0.7906 µM) | relative viability (Mirin + Alpelisib; first compound 2.5 µM) | relative viability (Mirin + Alpelisib; first compound 7.906 µM) | relative viability (Mirin + Alpelisib; first compound 25 µM) |
| --- | --- | --- | --- | --- | --- | --- | --- | --- | --- | --- | --- | --- | --- | --- | --- | --- | --- | --- | --- | --- |
| 201T | 1 | 1.02 | 1.03 | 1.03 | 0.964 | 1 | 0.988 | 0.995 | 0.902 | 1.06 | 1.02 | 1.01 | 0.966 | 1.05 | 0.954 | 1.01 | 1 | 1.02 | 1.11 | 1.14 |
| A549 | 0.837 | 0.417 | 0.223 | 0.086 | 0.114 | 0.763 | 0.657 | 0.849 | 0.698 | 0.831 | 0.986 | 0.785 | 0.426 | 0.23 | 0.0785 | 0.635 | 0.719 | 0.58 | 0.58 | 0.733 |
| A-427 | 0.966 | 1.08 | 0.846 | 0.998 | 0.879 | 1.08 | 1.08 | 0.99 | 0.986 | 0.791 | 1.22 | 1.13 | 1.04 | 1.1 | 0.998 | 1.2 |  | 1.15 | 1.1 | 1.14 |
| ABC-1 | 1.7 | 0.973 | 1 | 0.608 | 0.396 | 0.987 | 1 | 1.08 | 0.942 | 0.971 | 1.35 | 0.691 | 0.877 | 0.877 | 0.487 | 1.34 | 1.14 | 1.09 | 1.1 | 0.633 |
| BEN | 0.818 | 0.869 | 0.631 | 0.318 | 0.303 | 0.961 | 0.965 | 0.898 | 0.574 | 0.583 | 1.06 | 1.03 | 0.787 | 0.326 | 0.329 | 1.03 | 1.08 | 1.09 | 0.973 | 0.467 |
| CAL-12T | 0.74 | 0.5 | 0.371 | 0.298 | 0.215 | 1.25 | 1.16 | 1.06 | 1.32 | 1.09 | 1.75 | 1.49 | 1.51 | 1.23 | 0.786 | 1 | 1.36 | 1.15 | 1.23 | 1.34 |
| COR-L23 | 0.598 | 0.341 | 0.329 | 0.133 | 0.107 | 0.899 | 0.721 | 0.886 | 0.702 | 0.783 | 0.681 | 0.647 | 0.446 | 0.154 | 0.159 | 0.847 | 0.822 | 0.758 | 0.715 | 0.682 |
| COR-L 105 | 0.663 | 0.571 | 0.371 | 0.273 | 0.264 | 1.07 | 0.847 | 0.966 | 0.893 | 0.894 | 1.08 | 0.694 | 0.938 | 0.596 | 0.459 | 0.914 | 1.26 | 1.13 | 0.925 | 1.04 |
| Calu-6 | 0.864 | 0.698 | 0.519 | 0.346 | 0.373 | 0.891 | 0.923 | 0.86 | 0.822 | 0.86 | 0.861 | 0.827 | 0.582 | 0.477 | 0.455 | 0.922 | 1.07 | 1.02 | 0.831 | 0.769 |
| ChaGo-K-1 | 1.31 | 1.04 | 0.96 |  | 0.633 |  |  |  |  |  |  |  |  |  |  |  |  |  |  |  |
| EBC-1 | 0.227 | 0.207 | 0.175 | 0.17 | 0.136 | 0.962 | 0.769 | 0.796 | 0.697 | 1.03 | 1.02 | 0.767 | 0.678 | 0.733 | 0.557 | 0.952 | 0.984 | 0.862 | 0.587 | 0.553 |
| EKVX | 1.14 | 0.994 | 0.893 | 0.724 | 0.788 | 0.875 | 0.828 | 0.762 | 0.699 | 0.866 | 1.16 | 0.83 | 0.883 | 0.764 | 0.837 | 0.909 | 0.817 | 0.992 | 0.773 | 0.788 |
| EMC-BAC-2 | 0.904 | 0.823 | 0.789 | 0.733 | 0.701 | 0.748 | 0.697 | 0.726 | 0.723 | 0.774 | 0.872 | 0.732 | 0.8 | 0.729 | 0.75 | 0.771 | 0.838 | 0.756 | 0.698 | 0.685 |
| EPLC-272H | 1.24 | 1.12 | 0.83 | 0.871 | 0.932 | 0.795 | 0.85 | 0.813 | 0.979 | 0.981 | 1.11 | 0.963 | 0.892 | 0.933 | 0.973 | 0.89 |  | 1.02 | 0.779 | 0.815 |
| H3255 | 1.13 | 0.815 | 0.725 | 0.49 | 0.637 | 0.742 | 0.721 | 0.711 | 0.67 | 0.65 | 1.08 | 0.622 | 0.622 | 0.583 | 0.594 | 0.719 | 0.814 | 0.674 | 0.576 | 0.92 |
| HARA | 1.15 | 1.08 | 1.1 | 0.335 | 0.241 | 0.858 | 0.744 | 0.816 | 0.651 | 0.812 | 0.831 | 0.797 | 0.756 | 0.395 | 0.485 | 0.889 | 0.968 | 0.858 | 0.805 | 0.612 |
| HCC-15 | 0.961 | 0.746 | 0.723 | 0.75 | 0.772 | 0.954 | 0.877 | 0.925 | 0.892 | 0.889 | 1.03 | 0.831 | 0.953 | 0.867 | 0.845 | 0.851 | 0.859 | 0.928 | 0.798 | 0.593 |

— the supplement of paper PMC10307832
